Measurements from patent US20260315464A1, “COMPOSITIONS, METHODS, AND SYSTEMS FOR MODULATING SPLICING OF MSH3” (REVIR THERAPEUTICS, INC., priority 2023, published 2026).
One block for each molecule: values may come before it.

What was measured:
MSH3 Exon 21A = assay: Splicing and RNA expression changes, poison exon 21A (FIGS. 6-8); format: cell-based; details: FIG. 8; for total RNA: e.g., due to NMD
Text: (§1) Poison exons were identified in endogenous MSH3 genome by employing a proprietary bioinformatics pipeline screening for cryptic exons in combination with examining poison exon candidates that could be regulated by an agent described herein or by nonsense mediated decay (NMD) using cycloheximide. FIG. 6 and FIG. 7 illustrate identification of Exon 21A, but not Exon 21B, as a poison exon that could be regulated by the agent described herein. FIG. 8 and FIG. 9 illustrate mutations that can be introduced into the poison exon (Exon 21A and Exon 14A_1 or Exon 14A_2, respectively), where the mutated nucleotide bases (e.g., CAG) could further enhance the suppression of the MSH3 expression. Such mutations can be utilized as a method or a system for screening additional candidate agents. FIG. 8 illustrates splicing and RNA expression changes for targets regulated by an agent described herein. […] FIG. 8 also illustrates how mutating a poison exon (e.g., from ATA to CAG) increased percentage of splice inclusion of Exon 21A from 0.13 to 0.98. Such mutations can be useful for designing a method or a system for screening additional agents for modulating splicing in of poison exon into a mRNA (e.g., as shown in FIG. 10). FIG. 9 illustrates splicing and RNA expression changes for targets regulated by an agent described herein. […] FIG. 9 also illustrates how mutating the poison exon (e.g., from TGA to CAG) increased percentage of splice inclusion of Exon 14A_1 from 0.00 to 0.59. Such mutations can be useful for designing a method or a system for screening additional agents for modulating splicing in of poison exon into a mRNA (e.g., as shown in FIG. 10). […] FIG. 10A illustrates engineered minigene donor (e.g., by mutating endogenous trinucleotides to CAG as shown in FIG. 8 and FIG. 9) for driving expression of a luciferase reporter gene. FIG. 10B illustrates minigene PCR showing the presence of the poison exon comprising the CAG mutation. […] FIG. 10C illustrates increased luciferase signal generated by the presence of the minigene comprising the poison exon comprising the CAG mutation.

[1] = tested on: MSH3 Exon 14A_1 or Exon 14A_2; assay: Splicing and RNA expression changes, poison exon 14A_1 or 14A_2 (FIG. 9); format: cell-based; details: for total RNA: e.g., due to NMD
Text: as §1

MSH3 = assay: QPCR assay for levels of MSH3 upon compound treatment in HEK293T or AD293 cells (fold-change of MSH3 transcript, EC50 of MSH3 downregulation; total MSH3 exons 13/14, exons 20/21; Table 8); format: cell-based; details: for mrna remaining at 1 µM / mrna remaining at 10 µM: Homo sapiens, fold-change of the MSH3 transcript, normalized to GAPDH; for mrna remaining at 1 µM: 1 μM compound; for mrna remaining at 10 µM: 10 μM compound
Summary of the method: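 MSH3 mRNA was quantified by TaqMan qPCR covering exons 13/14, exons 20/21, exon 13/PE14A and exon 20/PE21A, with GAPDH as reference. Cells used were HEK293T or AD293, treated with compound at 1 μM and […].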

MSH3 protein = assay: Western blot of MSH3 protein in HEK293 WT and PE5 CAG clones (FIG. 12C); format: cell-based, human
Protocol: (§2) In this example, MSH3 poison exon 14A (PE5) and poison exon 21A (PE4) were validated. Briefly, HEK293 parental and clonal cells (Synthego) were cultured in DMEM (ThermoFisher Scientific) supplemented with 10% fetal bovine serum (Avantor) and 0.1 μg/mL Primocin (Invivogen). All cell lines were maintained at sub-confluency and grown in a humidified incubator at 37° C. with 5% CO2. HEK293 clonal cells were generated by Synthego's proprietary CRISPR methods to replace PE14A 5′ splice site with a strong donor (TGAGTTG>CAGGTTA) at the endogenous locus. Two clones (C3 and H2) were isolated to express 99-100% of the desired knock-in mutation. Two clones were generated from the parental line HEK293 without any editing (wild-type WTl3 and WT7) to be used as controls. […] RNA, cDNA and qPCR was prepared using TaqMan Cells-to-CT Express kit (ThermoFisher Scientific). Taqman assays (ThermoFisher Scientific) were used for quantification of total MSH3 exons 13/14 (cat #4351372, ID #: Hs00988993_ml), total MSH3 exons 20/21 (cat #4351372, ID #: Hs00989000_ml), exon 13/PE14A (Fwd: 5′-[…] (SEQ ID NO: 14); Rev: 5′-[…] (SEQ ID NO: 15); Probe: 5′-[…] (SEQ ID NO: 16)) and exon 20/PE21A (Fwd: 5′-[…] (SEQ ID NO: 17); Rev: 5′-[…] (SEQ ID NO: 18); Probe: 5′-[…] (SEQ ID NO: 19)) mRNA expression. […] Protein concentrations were determined by Rapid Gold BCA (ThermoFisher Scientific). […]

[2] = tested on: MSH3 exon 13/PE14A mRNA (PE5); assay: qPCR of MSH3 PE5 (exon 13/PE14A) in HEK293 WT and PE14A CAG clones (FIG. 11B); format: cell-based, human
Protocol: as §2

[3] = tested on: MSH3 exon 20/PE21A mRNA (PE4); assay: qPCR of MSH3 PE4 (exon 20/PE21A) in HEK293 WT and PE14A CAG clones (FIG. 12B); format: cell-based, human; details: HEK293 wild-type clones, 24 hours
Protocol: as §2

MSH3 exons 13/14 mRNA = assay: qPCR of total MSH3 exons 13/14 in HEK293 WT and PE14A CAG clones (FIG. 11A); format: cell-based, human
Protocol: as §2

MSH3 poison exon 14A [4] = assay: RT-PCR of MSH3 exon 13/PE14A and PE14A/exon 14 amplicons in cynomolgus monkey fibroblasts (FIG. 13); format: cell-based; details: 24 hours
Protocol: (§3) To further validate MSH3 poison exon 14A, RT-PCR was used to analyze MSH3 exon 13/poison exon 14A, and poison exon 14A/exon 14 amplicons. Briefly, Cynomolgus monkey primary dermal fibroblasts (Cellosaurus) and HEK293 cells (ATCC) were cultured in DMEM (ThermoFisher Scientific) supplemented with 10% fetal bovine serum (Avantor) and 0.1 μg/mL Primocin (Invivogen). All cell lines were maintained at sub-confluency and grown in a humidified incubator at 37° C. with 5% CO2. RNA was purified using Qiashredder and RNeasy kits (Qiagen), cDNA was prepared with MultiScribe Reverse Transcriptase (ThermoFisher Scientific) and PCR with GoTaq Green Master Mix (Promega). Primers (IDT) used were the following: Fwd-Exon 13 (5′-[…] (SEQ ID NO: 20)), Rev-PE14A (5′-[…] (SEQ ID NO: 21)), Fwd-PE14A (5′-[…] (SEQ ID NO: 22)), Rev-Exon 14 (5′-[…] (SEQ ID NO: 23)), Fwd-GAPDH (5′-[…] (SEQ ID NO: 24)), Rev-GAPDH (5′-ACCCGTTGACTCCGACCT (SEQ ID NO: 25)).

MSH3 exons 20/21 mRNA = assay: qPCR of total MSH3 exons 20/21 in HEK293 WT and PE14A CAG clones (FIG. 12A); format: cell-based, human; details: HEK293 wild-type clones, 24 hours
Protocol: as §2

MSH3 poison exon 14A [5] = assay: RT-PCR of MSH3 exon 13/PE14A and PE14A/exon 14 amplicons in HEK293 cells (FIG. 13); format: cell-based, human; details: 24 hours
Protocol: as §3

[6] = HEK293 wild-type clones, 24 hours

SMILES: C[C@@H]1C[C@@H]([C@H](O)CC2CC(=O)NC(=O)C2)C(=O)[C@@H](C)C1 [CHX, cycloheximide, reference compound]
poison exon expression (Exon 21A) (MSH3 Exon 21A): increased poison exon expression | total RNA (MSH3 Exon 21A): decreased total RNA | poison exon expression (Exon 14A_1 or Exon 14A_2) [1]: increased poison exon expression | total RNA [1]: decreased total RNA

SMILES: CN(c1ccc(N2Cc3cnc(-c4cnn(C)c4)cc3C2=O)nn1)C1CCNCC1 [Compound 1, 2-(6-(methyl(piperidin-4-yl)amino)pyridazin-3-yl)-6-(1-methyl-1H-pyrazol-4-yl)-2,3-dihydro-1H-pyrrolo[3,4-c]pyridin-1-one]
poison exon expression (Exon 21A) (MSH3 Exon 21A): increased poison exon expression | total RNA (MSH3 Exon 21A): decreased total RNA | poison exon expression (Exon 14A_1 or Exon 14A_2) [1]: increased poison exon expression | total RNA [1]: decreased total RNA

SMILES: COc1cc(-c2nn(C)nc2C)cc2c1CN(c1ccc(OC3CC(C)(C)NC(C)(C)C3)nn1)C2=O [Compound 688, 6-(2,5-dimethyl-2H-1,2,3-triazol-4-yl)-4-methoxy-2-(6-((2,2,6,6-tetramethylpiperidin-4-yl)oxy)pyridazin-3-yl)isoindolin-1-one]
mrna remaining at 1 µM (MSH3): 123% | mrna remaining at 10 µM (MSH3): 86%

SMILES: CN(c1ccc(N2Cc3c(O)cc(-c4nn(C)nc4Cl)cc3C2=O)nn1)[C@H]1C[C@]2(C)CC[C@](C)(C1)N2 [Compound 689, 6-(5-chloro-2-methyl-2H-1,2,3-triazol-4-yl)-2-(6-(((1R,3s,5S)-1,5-dimethyl-8-azabicyclo[3.2.1]octan-3-yl)(methyl)amino)pyridazin-3-yl)-4-hydroxyisoindolin-1-one]
mrna remaining at 1 µM (MSH3): 88% | mrna remaining at 10 µM (MSH3): 27%

SMILES: CN(c1ccc(N2Cc3c(C#N)cc(-c4nnn(C)n4)cc3C2=O)nn1)[C@H]1C[C@]2(C)CC[C@](C)(C1)N2 [Compound 693, 2-(6-(((1R,3s,5S)-1,5-dimethyl-8-azabicyclo[3.2.1]octan-3-yl)(methyl)amino)pyridazin-3-yl)-6-(2-methyl-2H-tetrazol-5-yl)-1-oxoisoindoline-4-carbonitrile]
mrna remaining at 1 µM (MSH3): 94% | mrna remaining at 10 µM (MSH3): 40%

EC50 (MSH3; EC50 of MSH3 downregulation, XtalPi): 11100 nM
SMILES: Cc1cn(-c2cc(C#N)c3c(c2)C(=O)N(c2ccc(N(C)[C@H]4C[C@]5(C)CC[C@](C)(C4)N5)nn2)C3)nn1 [Compound 695, 2-(6-(((1R,3s,5S)-1,5-dimethyl-8-azabicyclo[3.2.1]octan-3-yl)(methyl)amino)pyridazin-3-yl)-6-(4-methyl-1H-1,2,3-triazol-1-yl)-1-oxoisoindoline-4-carbonitrile]

SMILES: Cc1nn(C)cc1-c1cc(F)c2c(c1)C(=O)N(c1ccc(N(C)[C@H]3C[C@]4(C)CC[C@](C)(C3)N4)nn1)C2 [Compound A]
MSH3 protein levels (MSH3 protein; PE5 CAG clones): decreased in MSH3 levels | MSH3 protein levels (MSH3 protein; wild-type clones): decreased in MSH3 levels | PE5-specific expression [2, 6]: increasing PE5-specific expression | further increase of PE5 ([2]; PE5 CAG clones C3 and H2, 24 hours, starting at 0.3-1 μM): 20-30% | PE4-specific expression [3]: increasing PE4-specific expression | MSH3 expression (total, exons 13/14) (MSH3 exons 13/14 mRNA; [6]): lowering MSH3 expression | MSH3 expression (total, exons 13/14) (MSH3 exons 13/14 mRNA; PE5 CAG clones C3 and H2, 24 hours): No further decrease | 13/PE14A amplicon (MSH3 poison exon 14A [4]): increase | PE14A/14 amplicon (MSH3 poison exon 14A [4]): increase | MSH3 expression (total, exons 20/21) (MSH3 exons 20/21 mRNA): lowering MSH3 expression | 13/PE14A amplicon (MSH3 poison exon 14A [5]): increase | PE14A/14 amplicon (MSH3 poison exon 14A [5]): increase
